Values after ≈ are worked out from the molar mass of the structure shown.
Columns and labels:
[1] = test system: Bacterial strains that express type 2 MetRS; design: method as in PMID 19240076; conditions: most Gram-negative bacteria, Bacteroides, bifidobacteria, actinobacteria, lactobacilli; cited from earlier work
[2] = test system: type 1 methionyl-tRNA synthetase (MetRS); design: method as in PMID 19258353, PMID 19251726; conditions: cited from earlier work
[3] = test system: C. difficile; design: method as in PMID 19258353; conditions: cited from earlier work
[4] = design: method as in PMID 28584140; conditions: cited from earlier work
[5] = Drug product stability (ICH Q1A(R2)); assay type: physicochemical; conditions: 200-mg gelatin capsules, room temperature
Description: CRS3123 was provided by Crestone, Inc., in the form of dihydrochloride salt (CRS3123.2HCl) and formulated into 200-mg gelatin capsules by SRI International (Palo Alto, CA). Drug product stability specifications were met beyond the study period [stable for at least 60 months storage at room temperature monitored according to ICH Guidance for Industry Q1A(R2) Stability Testing of New Substances and Products].

O=c1cc(NCCCN[C@@H]2CCOc3c(Br)cc(Br)cc32)[nH]c2ccsc12 [CRS3123]
susceptibility of strains expressing type 2 MetRS [1]: virtually no susceptibility | inhibition of type 1 MetRS [2]: potently inhibits | MIC90 [3]: 1 µg/mL (≈ 1.95 µM) | share of oral dose metabolized into glucuronide conjugates detectable in urine [4]: a small fraction | systemic absorption following oral dosing ([4]; preclinical testing and SAD study 100 mg to 1,200 mg): low systemic absorption | safety and tolerability ([4]; single oral doses 100 mg to 1,200 mg): safe and well tolerated | drug product stability, storage time [5]: at least 60 months

Reference: article PMC7187627 (Antimicrobial Agents and Chemotherapy, 2019)
